Patent US7449492B2, “Therapeutic agents—I” (priority 2000, dated 2008)

Assays:
[1] = test system: Peripheral blood mononuclear cells (PBMC); experiment: Respiratory burst, H2O2 production by DCFH-DA flow cytometry; type: cell-based; settings: 10 μg/mL or 1 μg/mL, added at the same time as the test compounds
Method: Experiments were also carried out using 2′,7′-dichlorofluorescein diacetate (DCFH-DA) to measure the production of H2O2.(J P Robinson, Oxidative burst methods, in Handbook of Flow Cytometry Methods, Wiley-Liss Inc, pp 147-149, 1993). H2O2 oxidizes the non-fluorescent probe (DCFH-DA) to a fluorescent probe that can then be detected by a flow cytometer. Peripheral blood mononuclear cells (PBMC) were extracted from a donor blood sample by lysis of heparinized blood and used in a suspension of 1×10^6/mL of phosphate buffer, pH 7.3. The cells were then incubated, with DCFH-DA (1 μL/mL of 20 mM stock) for 15 minutes to allow it to be taken up and trapped by hydrolysis with cellular esterases. The cells were then stimulated by test compounds for 15 min at 37° C. Controls included in the experiment were unloaded control (cells with no DCFH-DA) and loaded control (cells with DCFH-DA, but no stimulation). These were used to monitor the non-specific oxidation of unstimulated cells. The cells were then analyzed on the flow cytometer (excitation at 488 nm, emission at 525±20 nm), gating each sample for individual cell populations—granulocytes, monocytes and lymphocytes (Table 3).

[2] = test system: phorbol ester binding site of PKC; experiment: [3H]-phorbol dibutyrate competition assay on rat brain homogenate; settings: co-incubation
Method: A competition assay was performed to determine whether the diterpene esters of the instant invention bind to the phorbol ester binding site of PKC. […] This binding was not blocked by co-incubation with bisindolylmaleimide.

[3] = test system: peripheral blood mononuclear cells (PBMCs); experiment: Phagocytosis with fluorescent beads; type: cell-based; settings: whole heparinized blood, 30 min at 37° C.
Method: Phagocytosis by peripheral blood mononuclear cells (PBMCs) was assayed (Steinkamp et al., 1982) using 1 μm Fluoresbrite™ yellow-green fluorescent latex spheres (Polysciences, Inc., Warrington, Pa.). A sample of whole, heparinized blood was treated with drug and 5×10E7 fluorescent latex beads in 10 μL of PBS added per mL of suspension. Cells were incubated and maintained in suspension for 30 min by means of a shaker platform at 37° C. The stimulated and non-stimulated samples were then lysed to isolate PBMCs. The PBMCs were run on the flow cytometer measuring FITC (excitation at 488 nm, emission at 525±20 nm), gated for fluorescence (phagocytosed spheres) and light scatter (cell size).

adenovirus 5 = experiment: Adenovirus replication in human melanoma cells (immunohistochemical detection); type: cell-based; settings: 295 ng/mL; 2 days
Text: Human melanoma cells were infected with ten-fold dilutions of adenovirus 5 in culture, treated with dilutions of PEP005, PEP006, PEP008 and PEP010 and adenovirus replication determined 2 days later by immunhistochemical detection of virus-replicating cells.

PKCα = target: T1, PKCα (Homo sapiens, UniProt P17252); type: cell-based; settings: HeLa, one hour; for PKCα translocation from the cytoplasm to the plasma membrane: TPA 100 ng/mL, bryostatin-1 5 pg/mL, PEP003 2.25 μg/mL (5 μM), PEP005 (1.5 μM)
T1 construct: host or cells: HeLa cells
Method: (§1) Five EGFP-PKC isoforms (Clontech) were available for this experiment, enabling the screening of the three predominant PKC families (i.e. classical, novel and a typical PKCs). The members of the various PKC families are α, β, and γ (classical), θ (novel) and ζ (atypical).
(§2) HeLa cells were plated out in a 24-well plate containing coverslips and transfected with PKC isoforms fused to EGFP, using a commercially available effectine-transfection kit (QIAGEN, Pty. Ltd.). Cells were exposed to the transfection reagents for 16-24 hr. Subsequently, transfected cells were treated for one hour with TPA (100 ng/mL), bryostatin-1 (5 pg/mL), PEP003 (2.25 μg/mL; 5 μM) or PEP005 ([…]) 1.5 μM). Following treatment, cells were fixed on coverslips and mounted on glass slides. The slides were subsequently examined visually by fluorescence microscopy, photographed, and over 150 cells were counted/treatment/PKC isoform. Counted cells were classified according to the localisation of the PKC-EGFP fluorescence as either cytoplasmic or plasma membrane using ImagePro™ 4.1 (FIG. 5). […] The number of these cells was also counted.

PKCβ = target: T2, PKCβ (Homo sapiens, UniProt P05771); experiment: EGFP-PKC isoform translocation in HeLa cells; type: cell-based; settings: one hour; for PKCβ translocation from the cytoplasm to the plasma membrane: TPA 100 ng/mL, bryostatin-1 5 pg/mL, PEP003 2.25 μg/mL (5 μM), PEP005 670 μg/mL (1.5 μM)
T2 construct: host or cells: HeLa cells
Method: as §1
as §2, with “counted. Results are presented as an average and standard deviation of percentages of cells (Table 1).” for “counted.”

PKCθ = target: T3, PKCθ (Homo sapiens, UniProt Q04759); experiment: EGFP-PKC isoform translocation in HeLa cells; type: cell-based; settings: one hour, TPA 100 ng/mL, bryostatin-1 5 pg/mL, PEP003 2.25 μg/mL (5 μM)
T3 construct: host or cells: HeLa cells
Method: as §1
as §2, with “counted. Results are presented as an average and standard deviation of percentages of cells (Table 1).” for “counted.”

PKCζ = target: T4, PKCζ (Homo sapiens, UniProt Q05513); experiment: EGFP-PKC isoform translocation in HeLa cells; type: cell-based; settings: one hour, TPA 100 ng/mL, bryostatin-1 5 pg/mL, PEP003 2.25 μg/mL (5 μM), PEP005 670 μg/mL (1.5 μM)
T4 construct: host or cells: HeLa cells
T4 sequence (Q05513 1-592): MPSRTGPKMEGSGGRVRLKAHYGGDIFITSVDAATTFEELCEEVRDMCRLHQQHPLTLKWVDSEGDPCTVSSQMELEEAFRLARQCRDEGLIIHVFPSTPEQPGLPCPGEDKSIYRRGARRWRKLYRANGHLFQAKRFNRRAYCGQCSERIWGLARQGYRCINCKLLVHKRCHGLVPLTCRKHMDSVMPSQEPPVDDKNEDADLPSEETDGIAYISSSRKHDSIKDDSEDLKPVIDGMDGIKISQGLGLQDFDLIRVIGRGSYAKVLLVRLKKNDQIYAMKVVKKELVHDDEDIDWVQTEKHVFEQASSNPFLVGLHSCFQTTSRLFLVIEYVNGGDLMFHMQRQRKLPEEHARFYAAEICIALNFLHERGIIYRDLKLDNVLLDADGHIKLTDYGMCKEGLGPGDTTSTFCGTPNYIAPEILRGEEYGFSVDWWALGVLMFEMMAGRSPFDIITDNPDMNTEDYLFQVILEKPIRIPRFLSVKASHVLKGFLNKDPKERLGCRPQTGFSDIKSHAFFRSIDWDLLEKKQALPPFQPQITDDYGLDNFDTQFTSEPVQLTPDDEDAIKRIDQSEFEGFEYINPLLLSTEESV
Method: as §1
as §2, with “counted. Results are presented as an average and standard deviation of percentages of cells (Table 1).” for “counted.”

PKCγ = target: T5, PKCγ (Homo sapiens, UniProt P05129); experiment: EGFP-PKC isoform translocation in HeLa cells; type: cell-based; settings: one hour
T5 construct: host or cells: HeLa cells
Method: as §1
as §2, with “counted. Results are presented as an average and standard deviation of percentages of cells (Table 1).” for “counted.”

rat brain PKC = experiment: PKC kinase activity, PepTag Non-Radioactive Protein Kinase Kit; type: biochemical; settings: FIG. 1; TPA various dilutions (lanes 3, 4 and 5); ether extract at final dilution of 1 in 5 relative to the sap; crude sap and aqueous layer diluted 1/25
Method: The kinase activity of rat brain PKC (Promega) was determined using the Peptag™ Non-Radioactive Protein Kinase Kit (Promega). Using agarose gel electrophoresis the technique visualises the opposing electrostatic charge of a fluorescently labeled peptide ([sequence]) compared to the phosphorylated version of the same peptide.
The reaction mixture was separated by gel electrophoresis, showing migration of the unreacted substrate (a) to the anode (top), and the product (b), which is more negatively charged because of phosphorylation by PKC, moving towards the cathode (bottom).

T2 sequence (P05771 whole entry, species assumed, canonical isoform): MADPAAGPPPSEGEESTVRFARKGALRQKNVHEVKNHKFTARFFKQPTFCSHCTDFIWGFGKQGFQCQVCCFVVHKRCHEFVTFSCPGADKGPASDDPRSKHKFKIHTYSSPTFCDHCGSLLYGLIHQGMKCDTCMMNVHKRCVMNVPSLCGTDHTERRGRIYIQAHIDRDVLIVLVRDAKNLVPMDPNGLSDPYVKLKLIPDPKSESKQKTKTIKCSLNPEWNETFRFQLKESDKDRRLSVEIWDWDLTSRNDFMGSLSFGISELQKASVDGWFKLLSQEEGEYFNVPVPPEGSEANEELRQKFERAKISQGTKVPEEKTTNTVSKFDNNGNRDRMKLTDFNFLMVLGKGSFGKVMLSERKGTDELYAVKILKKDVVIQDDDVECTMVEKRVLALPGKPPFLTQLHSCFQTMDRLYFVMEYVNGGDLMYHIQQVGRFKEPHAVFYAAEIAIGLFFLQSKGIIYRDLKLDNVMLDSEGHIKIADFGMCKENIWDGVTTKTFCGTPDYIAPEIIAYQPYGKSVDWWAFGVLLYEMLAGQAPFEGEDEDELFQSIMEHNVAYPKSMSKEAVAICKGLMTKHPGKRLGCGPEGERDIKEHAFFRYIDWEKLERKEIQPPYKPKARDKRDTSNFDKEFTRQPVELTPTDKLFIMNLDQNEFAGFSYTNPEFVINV
T3 sequence (Q04759 whole entry, canonical isoform): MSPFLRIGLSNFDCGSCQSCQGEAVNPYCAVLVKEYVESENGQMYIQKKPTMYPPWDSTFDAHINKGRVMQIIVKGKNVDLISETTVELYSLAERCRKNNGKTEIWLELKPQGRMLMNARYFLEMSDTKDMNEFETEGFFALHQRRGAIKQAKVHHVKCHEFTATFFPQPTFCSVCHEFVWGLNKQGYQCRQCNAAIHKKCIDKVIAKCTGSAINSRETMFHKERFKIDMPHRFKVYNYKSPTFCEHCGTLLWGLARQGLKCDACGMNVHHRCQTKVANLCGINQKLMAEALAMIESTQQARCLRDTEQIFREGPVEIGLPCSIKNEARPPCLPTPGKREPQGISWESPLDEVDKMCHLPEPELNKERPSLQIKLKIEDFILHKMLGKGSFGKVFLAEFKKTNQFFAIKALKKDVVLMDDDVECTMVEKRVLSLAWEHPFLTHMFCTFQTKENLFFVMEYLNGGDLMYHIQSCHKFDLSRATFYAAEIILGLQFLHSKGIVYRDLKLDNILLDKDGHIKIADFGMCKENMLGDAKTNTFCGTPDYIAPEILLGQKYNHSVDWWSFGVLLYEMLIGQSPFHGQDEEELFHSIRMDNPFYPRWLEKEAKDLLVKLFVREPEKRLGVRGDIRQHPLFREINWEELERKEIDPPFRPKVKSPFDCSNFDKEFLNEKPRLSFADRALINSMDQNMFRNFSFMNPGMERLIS

Molecule: bisindolylmaleimide
- effect of PKC inhibitor on the respiratory burst seen with TPA and PEP003 [1]: blocked the respiratory burst
- binds to the phorbol ester binding site of PKC [2]: does not

Molecule: C/C=C(/C)C(=O)O[C@H]1C(C)=C[C@]23C(=O)[C@H](C=C(C)[C@@H](O)[C@]12O)[C@H]1[C@@H](C[C@H]3C)C1(C)C [PEP006, 20-deoxy-ingenol-3-angelate]
- phagocytosis of fluorescent latex spheres in PBMCs [3]: stimulate phagocytosis
- increase of adenovirus replication (number of stained cells) (adenovirus 5): 256%

Molecule: CCC/C=C/C=C/C(=O)O[C@H]1/C(=C/C(=O)OC)C[C@H]2C[C@H]([C@@H](C)O)OC(=O)C[C@H](O)C[C@@H]3C[C@H](OC(C)=O)C(C)(C)[C@](O)(C[C@@H]4C/C(=C/C(=O)OC)C[C@H](/C=C/C(C)(C)[C@]1(O)O2)O4)O3 [bryostatin-1]
- PKCα translocation from the cytoplasm to the plasma membrane (PKCα): not with bryostatin-1
- number of PKCβ transfected cells with Golgi-like fluorescence (PKCβ): decreases the number of cells with PKCβ concentrated in the Golgi
- PKCβ translocation from the cytoplasm to the plasma membrane (PKCβ): not with bryostatin-1
- PKCθ translocation (PKCθ): translocated
- PKCζ translocation (PKCζ): fail to induce translocation of PKCζ

Molecule: C/C=C(/C)C(=O)O[C@H]1C(C)=C[C@]23C(=O)[C@@H](C=C(CO)[C@@H](O)[C@]12O)[C@H]1[C@@H](C[C@H]3C)C1(C)C [PEP005, Ingenol-3-angelate]
- phagocytosis of fluorescent latex spheres in PBMCs [3]: stimulate phagocytosis
- number of PKCα transfected cells displaying Golgi-like fluorescence (PKCα): increase in the number of cells displaying Golgi-like fluorescence
- PKCα translocation from the cytoplasm to the plasma membrane (PKCα): translocated from the cytoplasm to the plasma membrane
- number of PKCγ transfected cells displaying Golgi-like fluorescence (PKCγ): increase in the number of cells displaying Golgi-like fluorescence
- PKCγ translocation from the cytoplasm to the plasma membrane (PKCγ; TPA 100 ng/mL, bryostatin-1 5 pg/mL, PEP003 2.25 μg/mL (5 μM), PEP005 670 μg/mL (1.5 μM)): translocated from the cytoplasm to the plasma membrane
- number of PKCβ transfected cells with Golgi-like fluorescence (PKCβ): decreases the number of cells with PKCβ concentrated in the Golgi
- PKCβ translocation from the cytoplasm to the plasma membrane (PKCβ): translocated from the cytoplasm to the plasma membrane
- PKCθ translocation (PKCθ): does not induce any change in the isoenzymes localization
- PKCζ translocation (PKCζ): fail to induce translocation of PKCζ

Molecule: phosphatidyl serine
- activation of PKC (rat brain PKC): strong activation
